Molecules are shown by their SMILES. Some results are limits rather than exact numbers.

For this assay, the target named is VHR (Homo sapiens, UniProt P51452). Put plainly: VHR phosphatase inhibition, general phosphatase assay using para-nitrophenylphosphate. The class given is biochemical. The conditions noted are these: read-out: IC50 Target VHR. From the text: Assays protocols for the other enzymes mentioned herein (MtPTPA, PP1, VHR, PTP1B) are disclosed in Schweizer R A S, Atanasov, G A, Frey B M, and Odermatt A, Mol. Cell. Endocrinol. 2003, 212, 41-49 and Barratte, B., Meijer L., Galaktionov K. & Beach D, Anticancer Res. 1992, 12, 873-880. For determination of the phosphatase activity, a general phosphatase assay using para-nitrophenylphosphate was applied.
VHR, sequence (P51452 whole entry, species assumed): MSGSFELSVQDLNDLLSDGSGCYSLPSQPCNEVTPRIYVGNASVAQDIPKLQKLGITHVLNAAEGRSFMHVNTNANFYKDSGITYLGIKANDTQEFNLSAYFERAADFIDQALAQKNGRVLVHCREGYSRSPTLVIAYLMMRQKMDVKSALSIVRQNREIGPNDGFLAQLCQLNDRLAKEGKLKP
`CC1=C2CCC[C@H](O)[C@@]2(C)C/C(=C\c2ccc(Cl)cc2)C1=O` [Compound 7, (3E,4aS,5S)-3-(4-Chlorobenzyliden)-4,4a,5,6,7,8-hexahydro-5-hydroxy-1,4a-dimethylnaphthalen-2(3H)-one]: the IC50 (in general, the concentration at which inhibition is half-maximal) lay within 10 to 50 µM.
Take `CC1=C2CCC[C@H](O)[C@@]2(C)C/C(=C\c2ccccc2)C1=O` [Compound 18, (3E,4aS,5S)-3-benzylidene-4,4a,5,6,7,8-hexahydro-5-hydroxy-1,4a-dimethylnaphthalen-2(3H)-one]: the IC50 is 10 to 50 µM.
Next, `CC1=C2CCC[C@H](O)[C@@]2(C)C/C(=C\c2cc(C)cs2)C1=O` [Compound 19, (3E,4aS,5S)-4,4a,5,6,7,8-Hexahydro-5-hydroxy-1,4a-dimethyl-3-[(4-methylthiophen-2-yl)methylen]naphthalen-2(3H)-one]: under 10 µM; `CCCCCCCCc1ccc(/C=C2\C[C@@]3(C)C(=C(C)C2=O)CCC[C@@H]3O)c(C)c1` [Compound 20, (3E,4aS,5S)-3-(2-Methyl-4-octyl-benzyliden)-4,4a,5,6,7,8-hexahydro-5-hydroxy-1,4a-dimethyl-naphthalen-2(3H)-one]: 10 to 50 µM.
Turning to `CC1=C2CCC[C@H](O)[C@@]2(C)C/C(=C\c2ccoc2)C1=O` [Compound 62], the IC50 fell in the range of 10 to 50 µM.
For the compound `CCc1ccc(/C=C2\C[C@@]3(C)C(CCC[C@@H]3O)C(C)C2=O)c(C)c1` (stereo partly drawn) [Compound 89, (E,4aS,5S)-3-(4-Ethyl-2-methylbenzyliden)-octahydro-5-hydroxy-1,4a-dimethylnaphthalen-2(1H)-one], the IC50 is 10 to 50 µM.
In the case of `CC1=C2CCC[C@H](O)[C@@]2(C)C/C(=C\c2ccc(O)c(O)c2O)C1=O` [Compound 107, (3E,4aS,5S)-3-(2,3,4-Trihydroxybenzyliden)-4,4a,5,6,7,8-hexahydro-5-hydroxy-1,4a-dimethylnaphthalen-2(3H)-one], the half-inhibitory concentration (IC50) lay within 10 to 50 µM.
For the compound `CC1=C2CCC[C@H](O)[C@@]2(C)C/C(=C\c2c[nH]c3ccccc23)C1=O` [Compound 115, (3E,4aS,5S)-3-[(1H-Indol-3-yl)methylen]-4,4a,5,6,7,8-hexahydro-5-hydroxy-1,4a-dimethylnaphthalen-2(3H)-one], the IC50 was 10 to 50 µM.
Turning to `CCCCCCC#Cc1ccc(/C=C2\C[C@@]3(Cc4ccccc4)C(=C(C)C2=O)CCC[C@@H]3O)cc1` [Compound 126, (3E,4aS,5S)-3-[4-(Oct-1-inyl)benzyliden]-4a-benzyl-4,4a,5,6,7,8-hexahydro-5-hydroxy-1-methylnaphthalen-2(3H)-one], the IC50 fell in the range of 10 to 50 µM.
For `C[C@]12C/C(=C\c3ccc(C#Cc4ccccc4)cc3)C(=O)C=C1CCC[C@@H]2O` [Compound 136, (3E,4aS,5S)-3-[4-(2-Phenylethinyl)benzyliden]-4,4a,5,6,7,8-hexahydro-5-hydroxy-4a-methylnaphthalen-2(3H)-one] the value was 10 to 50 µM.
Next, `COc1cc(CC2(C)C(NC3CCCCC3)CC[C@@]3(C)C2CCC[C@@H]3O)cc(OC)c1` (stereo partly drawn) [Compound 146, (1S,8aS)-5-(3,5-Dimethoxybenzyl)-6-(cyclohexylamino)-decahydro-5,8a-dimethylnaphthalen-1-ol]: 10 to 50 µM; `CCOC(=O)CC1(C)C(=O)CC[C@@]2(C)C1CCC[C@@H]2O` (stereo partly drawn) [Compound 153, Ethyl-2-[(4aS,5S)-decahydro-5-hydroxy-1,4a-dimethyl-2-oxonaphthalen-1-yl]acetat]: 10 to 50 µM; `CC1C(=O)/C(=C/c2ccccc2OCc2ccccc2)C[C@@]2(C)C1CCC[C@@H]2O` (stereo partly drawn) [Compound 190, (E,4aS,5S)-3-[2-(Benzyloxy)-benzyliden]-octahydro-5-hydroxy-1,4a-dimethylnaphthalen-2(1H)-one]: 10 to 50 µM.
Next, `C[C@H]1/C(=C\c2ccccc2)C(=O)C=C2CCC[C@H](O)[C@]21C` [Compound 203, (3E,4R,4aS,5S)-3-Benzyliden-4,4a,5,6,7,8-hexahydro-5-hydroxy-4,4a-dimethylnaphthalen-2(3H)-one]: 10 to 50 µM.
For the compound `CC1=C2CCC[C@H](O)[C@@]2(C)C/C(=C\c2c(C)c(C)c(C)c(C)c2C)C1=O` [Compound 215, (3E,4aS,5S)-3-(2,3,4,5,6-Pentamethylbenzyliden)-4,4a,5,6,7,8-hexahydro-5-hydroxy-1,4a-dimethylnaphthalen-2(3H)-one], the IC50 is 10 to 50 µM.
For `C[C@]12C/C(=C\c3ccccc3OCc3ccccc3)C(=O)C=C1CCC[C@@H]2O` [Compound 223, (3E,4aS,5S)-3-[2-(Benzyloxy)benzyliden]-4,4a,5,6,7,8-hexahydro-5-hydroxy-4a-methylnaphthalen-2(3H)-one], the IC50 fell in the range of 10 to 50 µM.
Regarding `CCCC(C)/C=C1\C[C@@]2(C)C(=CC1=O)CCC[C@@H]2O` (stereo partly drawn) [Compound 225, (3E,4aS,5S)-4,4a,5,6,7,8-Hexahydro-5-hydroxy-4a-methyl-3-(2-methylpentyliden)naphthalen-2(3H)-one], the IC50 lay in the range of 10 to 50 µM.
For `C=CC[C@@]12C(=CC(=O)/C(=C/C3=CC[C@@H](C(=C)C)CC3)[C@@H]1C)CCC[C@@H]2O` [Compound 241] the value was 10 to 50 µM; for `C=CC[C@@]12C(=CC(=O)/C(=C/c3ccc(C)o3)[C@@H]1C)CCC[C@@H]2O` [Compound 242, (3E,4R,4aS,5S)-4a-Allyl-4,4a,5,6,7,8-hexahydro-5-hydroxy-4-methyl-3-[(5-methylfuran-2-yl)methylen]naphthalen-2(3H)-on], 10 to 50 µM.
For `C[C@@H]1C(O)CC[C@]2(C)C(=O)/C(=C/c3ccco3)CCC12` (stereo partly drawn) [Compound 266, (E,5S,8aS)-2-[(Furan-2-yl)methylen]-octahydro-6-hydroxy-5,8a-dimethylnaphthalen-1(2H)-one] the value was 10 to 50 µM; for `COc1cc(OC)c(OC)cc1/C=C1\CCC2[C@H](C)C(O)CC[C@]2(C)C1=O` (stereo partly drawn) [Compound 267, (E,5S,8aS)-2-(2,4,5-Trimethoxy-benzyliden)-octahydro-6-hydroxy-5,8a-dimethylnaphthalen-1(2H)-one], 10 to 50 µM; for `C=C(C)[C@H]1CC=C(/C=C2\C[C@@]3(C)C(=CC2=O)CCC[C@@H]3O)CC1` [Compound 286, (3E,4aS,5S)-4,4a,5,6,7,8-Hexahydro-5-hydroxy-4a-methyl-3-{[(R)-4-(prop-1-en-2-yl)cyclohex-1-enyl]methylen}naphthalen-2(3H)-one], 10 to 50 µM.
As for `CC1(CCc2ccccc2)C(=O)/C(=C/c2ccc(I)cc2)CC2(C)C1CCCC21OCCO1` (stereo not shown) [Compound 402, (7′E)-7′-(4-iodo-benzylidene)-5′,8a′-dimethylhexahydro-5′-(2-phenylethyl)-2′H-spiro[1,3-dioxolane-2,1′-naphthalen]-6′(5′H)-one], the IC50 was 10 to 50 µM.
Next, `CC1(Cc2ccccc2[N+](=O)[O-])C(=O)CC[C@@]2(C)C1CCC[C@@H]2O` (stereo partly drawn) [Compound 405, (4aS,5S)-5-Hydroxy-1,4a-dimethyl-1-(2-nitro-benzyl)-octahydro-naphthalen-2-one]: 10 to 50 µM; `COc1cc(OC)c(/C=C2\C[C@]3(C)C(=O)CCCC3=C(C)C2=O)c(OC)c1` [Compound 408, (3E,4aS)-5,8a-Dimethyl-7-(2,4,6-trimethoxy-benzylidene)-3,4,8,8a-tetrahydro-2H,7H-naphthalen-1,6-dione]: 10 to 50 µM.

These data come from patent US20090062401A1, “DECALINE-DERIVED COMPOUNDS AS […] ACTIVE AGENTS” (UNIVERSITAT DORTMUND, priority 2004, published 2009).
